Literature values as cited in US20170056463A1, “COMPOSITIONS AND METHODS FOR TREATING DIABETES” (priority 2015, published 2017).

Key:
[1] = system: phosphotyrosine phosphatase
[2] = not given; remark: listed apart in the source
[3] = system: HSV (herpes simplex virus)

[Cr] [Chromium, chromium]
phosphotyrosine phosphatase activity [1]: inhibit

[Zn] [zinc]
blood glucose levels (2 hour post-prandial measurements in people treated with zinc): reduced
systolic and diastolic blood pressures (after zinc supplementation): significant reduction

COc1ccc2cc3[n+](cc2c1OC)CCc1cc2c(cc1-3)OCO2 [berberine]
levels of fasting blood sugar ([2]; after oral supplementation with the herbal extract of berberine, patients with pre-diabetes and diabetes): normalize
lowering of blood glucose ([2]; doses of about 1,000 mg daily, compared with metformin): as effectively as metformin
cholesterol ratios ([2]; previous investigations): improved
hemoglobin A1c (HbA1c) ([2]; previous investigations): significant reduction
growth of HSV [3]: inhibits growth
